Biological target: T1, human PAD4 (Homo sapiens, UniProt Q9UM07)
T1 construct: human PAD4 (NM_012387), A2P663, was PCR amplified; His-SUMO (N, cleaved yes); made in house; host or cells: E. coli BL21(DE3)
Experiment: In vitro PAD4 BAEE biochemical assay
Conditions: human PAD4, BAEE substrate; 5 nM PAD4, 2 mM calcium chloride, 3 mM BAEE; geometric mean of multiple experiments
In short: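 Tag-free recombinant hPAD4 (5 nM), 2 mM CaCl2, 3 mM BAEE, 50 mM MOPS pH 7.6, 2 mM DTT; 30 min compound preincubation, 2 h reaction, all 25 °C. EDTA quench; ammonia read via o-phthalaldehyde amine coupling, 1 h.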

T1 sequence (Q9UM07 2-663): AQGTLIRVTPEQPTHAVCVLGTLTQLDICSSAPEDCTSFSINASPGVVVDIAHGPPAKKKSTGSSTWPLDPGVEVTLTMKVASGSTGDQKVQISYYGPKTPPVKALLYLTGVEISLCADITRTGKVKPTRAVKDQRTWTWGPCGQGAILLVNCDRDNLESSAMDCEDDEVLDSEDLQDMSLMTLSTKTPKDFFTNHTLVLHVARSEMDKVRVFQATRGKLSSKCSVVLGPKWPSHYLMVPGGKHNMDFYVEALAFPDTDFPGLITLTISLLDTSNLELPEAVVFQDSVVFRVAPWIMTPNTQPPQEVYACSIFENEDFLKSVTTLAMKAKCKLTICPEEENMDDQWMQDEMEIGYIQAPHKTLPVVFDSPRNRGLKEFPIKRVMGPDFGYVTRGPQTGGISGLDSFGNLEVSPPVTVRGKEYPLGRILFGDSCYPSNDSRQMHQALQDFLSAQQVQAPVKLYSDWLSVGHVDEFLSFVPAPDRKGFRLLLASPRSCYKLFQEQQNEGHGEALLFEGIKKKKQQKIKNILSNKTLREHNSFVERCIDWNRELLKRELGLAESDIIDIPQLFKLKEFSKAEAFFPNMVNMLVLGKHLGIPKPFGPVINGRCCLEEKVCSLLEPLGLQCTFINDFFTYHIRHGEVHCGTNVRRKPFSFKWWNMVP

| Compound | IC50 |
| --- | --- |
| COc1cc(C(=O)N2[C@H]3CC[C@@H]2[C@H](N)C3)cc2nc(-c3cc4ccc([C@@H](C)NC(=O)c5ccncc5F)nc4n3CC3CC3)c(C)n12 [Example 52] | 0.0314 µM |
| COc1cc(C(=O)N2[C@H]3CC[C@@H]2[C@H](N)C3)cc2nc(-c3cc4ccc([C@@H](C)NC(=O)c5c(F)cccc5F)nc4n3CC3CC3)c(C)n12 [Example 16, ~{N}-[(1~{R})-1-[2-[7-[(1~{R},2~{R},4~{S})-2-amino-7-azabicyclo [2.2.1]heptane-7-carbonyl]-5-methoxy-3-methylimidazo [1,2-a]pyridin-2-yl]-1-(cyclopropylmethyl)pyrrolo[2,3-b]pyridin-6-yl]ethyl]-2,6-difluorobenzamide] | 0.114 µM |
| COc1cc(C(=O)N2C[C@H]3C[C@@]3(N)C2)cc2nc(-c3cc4ccc([C@@H](C)NC(=O)C56CC(F)(C5)C6)nc4n3CC3CC3)c(C)n12 [Example 24, ~{N}-[(1~{R})-1-[2-[7-[(1~{S},5~{R})-1-amino-3-azabicyclo [3.1.0]hexane-3-carbonyl]-5-methoxy-3-methylimidazo [1,2-a]pyridin-2-yl]-1-(cyclopropylmethyl)pyrrolo[2,3-b]pyridin-6-yl]ethyl]-3-fluorobicyclo[1.1.1] pentane-1-carboxamide] | 9.01 µM |
| COc1cc(C(=O)N2[C@H]3CC[C@@H]2[C@H](N)C3)cc2nc(-c3cc4ccc(C(C)(C)NC(=O)C(C)(C)C)nc4n3CC3CC3)c(C)n12 [Example 168, ~{N}-[2-[2-[7-[(1~{R},2~{R},4~{S})-2-amino-7-azabicyclo[2.2.1]heptane-7-carbonyl]-5-methoxy-3-methylimidazo [1,2-a]pyridin-2-yl]-1-(cyclopropylmethyl)pyrrolo [2,3-b]pyridin-6-yl]propan-2-yl]-2,2-dimethylpropanamide] | 0.171 µM |
| COc1cc(C(=O)N2[C@H]3CC[C@@H]2[C@H](N)C3)cc2nc(-c3cc4ccc([C@@H](C)NC(=O)C(C)(C)CO)nc4n3CC3CC3)c(C3CC3)n12 [Example 86, ~{N}-[(1~{R})-1-[2-[7-[(1~{R},2~{R},4~{S})-2-amino-7-azabicyclo[2.2.1]heptane-7-carbonyl]-3-cyclopropyl-5-methoxyimidazo [1,2-a]pyridin-2-yl]-1-(cyclopropylmethyl)pyrrolo [2,3-b]pyridin-6-yl]ethyl]-3-hydroxy-2,2-dimethylpropanamide] | 0.0578 µM |
| ~{N}-[(1~{R})-1-[2-[7- [(1~{R},2~{R},4~{S})- 2-amino-7-azabicyclo [2.2.1]heptane- 7-carbonyl]-5-methoxy- 3-methylimidazo [1,2-a]pyridin-2-yl]-1- (cyclopropylmethyl) pyrrolo[2,3-b]pyridin- 6-ylethyl]-2,2- dimethylcyclopropane- 1-carboxamide [Example 70] | 0.0632 µM |
| COc1cc(C(=O)N2[C@H]3CC[C@@H]2[C@H](N)C3)cc2nc(-c3cc4ccc([C@@H](C)NC(=O)N5CC6CC(C5)O6)nc4n3CC3CC3)c(C)n12 [Example 211, ~{N}-[(1~{R})-1-[2-[7-[(1~{R},2~{R},4~{S})-2-amino-7-azabicyclo[2.2.1]heptane-7-carbonyl]-5-methoxy-3-methylimidazo [1,2-a]pyridin-2-yl]-1-(cyclopropylmethyl)pyrrolo [2,3-b]pyridin-6-yl]ethyl]-6-oxa-3-azabicyclo [3.1.1]heptane-3-carboxamide] | 0.0316 µM |
| COc1cc(C(=O)N2CCC[C@@H](N)CC2)cc2nc(-c3cc4ccc([C@@H](C)NC(=O)C56CC(F)(C5)C6)nc4n3CC3CC3)c(C)n12 [Example 38, ~{N}-[(1~{R})-1-[2-[7-[(4~{R})-4-aminoazepane-1-carbonyl]-5-methoxy-3-methylimidazo[1,2-a]pyridin-2-yl]-1-(cyclopropylmethyl)pyrrolo[2,3-b]pyridin-6-yl]ethyl]-3-fluorobicyclo[1.1.1] pentane-1-carboxamide] | 30.6 µM |
| COc1cc(C(=O)N2[C@H]3CC[C@@H]2[C@H](N)C3)cc2nc(-c3cc4ccc([C@@H](C)NC(=O)C5(C)COC5)nc4n3CC3CC3)c(C3CC3)n12 [Example 109, ~{N}-[(1~{R})-1-[2-[7-[(1~{R},2~{R},4~{S})-2-amino-7-azabicyclo[2.2.1]heptane-7-carbonyl]-3-cyclopropyl-5-methoxyimidazo [1,2-a]pyridin-2-yl]-1-(cyclopropylmethyl)pyrrolo [2,3-b]pyridin-6-yl]ethyl]-3-methyloxetane-3-carboxamide] | 0.0317 µM |

Results, then the compound that gave them:

| IC50 | Compound |
| --- | --- |
| 0.0748 µM | CS(=O)(=O)N(c1ccc2cc(-c3nc4cc(C(=O)N5[C@@H]6CC[C@@H](N)[C@H]5CC6)ccn4c3C3CC3)n(CC3CC3)c2n1)C(F)F [Example 397] |
| 0.0754 µM | COc1cc(C(=O)N2[C@H]3CC[C@@H]2[C@H](N)C3)cc2nc(-c3cc4ccc(N(C)S(C)(=O)=O)nc4n3CC3CC3C)c(C)n12 (stereo partly drawn) [Example 490, ~{N}-[2-[7-[(1~{R},2~{R}, 4~{S})-2-amino-7-azabicyclo[2.2.1]heptane-7-carbonyl]-5-methoxy-3-methylimidazo[1,2-a]pyridin-2-yl]-1-[(2-methylcyclopropyl)methyl]pyrrolo[2,3-b]pyridin-6-yl]-~{N}-methylmethanesulfonamide] |
| 0.171 µM | COc1cc(C(=O)N2CCC[C@@H](N)C2)cc2nc(-c3cc4ccc(N(C)S(C)(=O)=O)nc4n3CC3CC3)c(C)n12 [Example 482, ~{N}-[2-[7-[(3~{R})-3-aminopiperidine-1-carbonyl]-5-methoxy-3-methylimidazo[1,2-a]pyridin-2-yl]-1-(cyclopropylmethyl)pyrrolo [2,3-b]pyridin-6-yl]-~{N}-methylmethanesulfonamide] |
| 0.0806 µM | COc1cc(C(=O)N2[C@H]3CC[C@@H]2[C@H](N)C3)cc2nc(-c3cc4ccc(N5C(C)CCCCS5(=O)=O)nc4n3CC3CC3)c(C)n12 (stereo partly drawn) [Example 445, [(1~{R},2~{R},4~{S})-2-amino-7-azabicyclo[2.2.1]heptan-7-yl]-[2-[1-(cyclopropylmethyl)-6-(3-methyl-1,1-dioxothiazepan-2-yl)pyrrolo [2,3-b]pyridin-2-yl]-5-methoxy-3-methylimidazo[1,2-a]pyridin-7-yl]methanone] |
| 2.03 µM | CNC(=O)C1CC1c1c(-c2cc3ccc(N(C(F)F)S(C)(=O)=O)nc3n2CC2CC2)nc2cc(C(=O)N3CCC[C@@H](N)C3)ccn12 (stereo partly drawn) [Example 431, 2-[7-[(3~{R})-3-aminopiperidine-1-carbonyl]-2-[1-(cyclopropylmethyl)-6-[difluoromethyl (methylsulfonyl)amino]pyrrolo[2,3-b]pyridin-2-yl]imidazo[1,2-a]pyridin-3-yl]-~{N}-methylcyclopropane-1-carboxamide] |
| 0.518 µM | COc1cc(C(=O)N2CCC[C@@H](N)C2)cc2nc(-c3cc4ccc(-c5ccc(N)nc5C)nc4n3CC3CC3)c(C)n12 [Example 605, [2-[6-(6-amino-2-methylpyridin-3-yl)-1-(cyclopropylmethyl)pyrrolo[2,3-b]pyridin-2-yl]-5-methoxy-3-methylimidazo[1,2-a]pyridin-7-yl]-[(3~{R})-3-aminopiperidin-1-yl]methanone] |
| 0.257 µM | COc1cc(C(=O)N2CCC[C@@H](N)C2)cc2nc(-c3cc4ccc([C@@H](C)NS(C)(=O)=O)nc4n3CC3CC3)c(C)n12 [Example 268, ~{N}-[(1~{R})-1-[2-[7-[(3~{R})-3-aminopiperidine-1-carbonyl]-5-methoxy-3-methylimidazo [1,2-a]pyridin-2-yl]-1-(cyclopropylmethyl)pyrrolo [2,3-b]pyridin-6-yl]ethyl]methanesulfonamide] |
| 0.484 µM | COc1cc(C(=O)N2C[C@H]3CCCN[C@H]3C2)cc2nc(-c3cc4ccc(N(C(F)F)S(C)(=O)=O)nc4n3CC3CC3)c(C)n12 [Example 336, ~{N}-[2-[7-[(4~{a}~{R},7~{a}~{R})-1,2,3,4,4~{a},5,7,7~{a}-octahydropyrrolo[3,4-b]pyridine-6-carbonyl]-5-methoxy-3-methylimidazo[1,2-a]pyridin-2-yl]-1-(cyclopropylmethyl)pyrrolo [2,3-b]pyridin-6-yl]-~{N}-(difluoromethyl) methanesulfonamide] |
| 1.7 µM | CCc1ccc2cc(-c3nc4cc(C(=O)N5CC6(CCCNC6)C5)cc(OC)n4c3C)n(CC3CC3)c2n1 [Example 594, [2-[1-(cyclopropylmethyl)-6-ethylpyrrolo[2,3-b]pyridin-2-yl]-5-methoxy-3-methylimidazo[1,2-a]pyridin-7-yl]-(2,8-diazaspiro[3.5]nonan-2-yl) methanone] |
| 4.63 µM | COc1cc(C(=O)N2C[C@H](N)CC[C@@H]2C)cc2nc(-c3cc4ccc(C#N)nc4n3CC3CC3)c(C)n12 [Example 610, 2-[7-[(2~{S},5~{R})-5-amino-2-methylpiperidine-1-carbonyl]-5-methoxy-3-methylimidazo[1,2-a]pyridin-2-yl]-1-(cyclopropylmethyl) pyrrolo[2,3-b] pyridine-6-carbonitrile] |
| 0.278 µM | COc1cc(C(=O)N2CC[C@@H]3CCNC[C@@H]32)cc2nc(-c3cc4ccc(N(C(F)F)S(C)(=O)=O)nc4n3CC3CC3)c(C)n12 [Example 321, ~{N}-[2-[7-[(3~{a}~{S},7~{a}~{R})-2,3,3~{a},4,5,6,7,7~{a}-octahydropyrrolo[2,3-c]pyridine-1-carbonyl]-5-methoxy-3-methylimidazo[1,2-a]pyridin-2-yl]-1-(cyclopropylmethyl)pyrrolo [2,3-b]pyridin-6-yl]-~{N}-(difluoromethyl) methanesulfonamide] |
| 19.1 µM | COc1cc(C(=O)N2C[C@@H]3NCCO[C@@H]3C2)cc2nc(-c3cc4ccc(N(C(F)F)S(C)(=O)=O)nc4n3CC3CC3)c(C)n12 [Example 320, ~{N}-[2-[7-[(4~{a}~{S},7~{a}~{R})-3,4,4~{a},5,7,7~{a}-hexahydro-2~{H}-pyrrolo[3,4-b][1,4]oxazine-6-carbonyl]-5-methoxy-3-methylimidazo [1,2-a]pyridin-2-yl]-1-(cyclopropylmethyl)pyrrolo [2,3-b]pyridin-6-yl]-~{N}-(difluoromethyl) methanesulfonamide] |

From US12240862B2, “Inhibitors of peptidylarginine deiminases” (Gilead Sciences, Inc., priority 2020, dated 2025)
